In patent publication US20240270748A1 (Merck Patent GmbH, priority 2021, published 2024):

Legend:
NCI-H226 cells = assay: Viability assay in NCI-H226 (Yap-dependent) cells, CyQuant; format: cell-based, human; conditions: Homo sapiens, NCI-H226, 96 h
How it was run: (§1)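 Seeded cells were dosed 24 h later in duplicate (10-point, 1:3 dilutions, top 30 μM final, 0.3% DMSO) and incubated 96 h at 37 °C. Viability was read with CyQUANT DNA dye after 1 h, fluorescence bottom read. NCI-H226 in RPMI 1640 medium; SW620 YAP/TAZ CRISPR knockout in DMEM/F-12 medium.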

SW620 Yap KO cells = assay: Viability assay in SW620 Yap KO (Yap independent) cells, CyQuant; format: cell-based; conditions: Homo sapiens, SW-620, 96 h, n.d. = value not detectable below threshold given in parentheses
How it was run: as §1

YAP-TEAD interaction = assay: SK-HEP-1 reporter assay (8xTEAD responsive elements driving NanoLuc luciferase); format: cell-based; conditions: Homo sapiens, SK-HEP1, SK-HEP-1 reporter assay
How it was run: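 Reporter read-out: NanoLuc luminescence from 8×TEAD elements stably integrated in SK-HEP-1 cells, after 24 h compound exposure at 37° C. Ten concentrations tested in duplicate, top 30 μM final, 0.3% DMSO; IC50 from curve.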

[1] = n.d. = value not detectable below threshold given in parentheses

Row | Structure (SMILES) | melting point | IC50 (NCI-H226 cells; [1]) | IC50 (SW620 Yap KO cells) | IC50 (YAP-TEAD interaction; class symbols) | IC50 (NCI-H226 cells; class symbols) | IC50 (YAP-TEAD interaction; [1])
1 | CCOc1ccc(-n2c3ccc(C(=O)O)cc3c3cn(C)nc32)cc1 [Example 15, 8-(4-Ethoxyphenyl)-2-methyl-2H,8H-pyrazolo[3,4-b]indole-5-carboxylic acid] | 179 to 181 °C |  |  |  |  | 
2 | COC(=O)c1ccc2c(c1)c1nn(C)cc1n2-c1ccc(C(F)(F)F)cc1 [Example 16, Methyl 2-methyl-4-[4-(trifluoromethyl)phenyl]pyrazolo[4,3-b]indole-7-carboxylate] | 111 to 112 °C |  |  |  |  | 
3 | Cn1cc2c(n1)c1cc(C#N)ccc1n2-c1ccc(C(F)(F)F)cc1 [Example 19, 2-methyl-4-[4-(trifluoromethyl)phenyl]pyrazolo [4,3-b]indole-7-carbonitrile] | 208 to 210 °C |  |  |  |  | 
4 | C=CC(=O)Nc1ccc2c(c1)c1cn(C)nc1n2-c1ccc(C(F)(F)F)cc1 [Example 20, N-[2-methyl-8-[4-(trifluoromethyl)phenyl]pyrazolo[3,4-b]indol-5-yl]prop-2-enamide] | 223 to 224 °C |  |  |  |  | 
5 | C=CC(=O)NCc1ccc2c(c1)c1cn(C)nc1n2-c1ccc(C(F)(F)F)cc1 [Example 21, N-([2-methyl-8-[4-(trifluoromethyl)phenyl]pyrazolo [3,4-b]indol-5-yl]methyl)prop-2-enamide] | 185 to 187 °C |  |  |  |  | 
6 | Cc1nc2c(s1)c1cc(C(=O)O)ccc1n2-c1ccc(C(F)(F)F)cc1 [Example 25, 2-methyl-4-[4-(trifluoromethyl)phenyl]-[1,3]thiazolo[4,5-b]indole-7-carboxylic acid] | 169 to 171 °C |  |  |  |  | 
7 | Cn1cc2c3cc(C(=O)NC4CC4)ccc3n(-c3ccc(C(F)(F)F)nc3)c2n1 [Example 27, N-cyclopropyl-2-methyl-8-[6-(trifluoromethyl)pyridin-3-yl]-2H,8H-pyrazolo[3,4-b]indole-5-carboxamide] | 300 °C |  |  |  |  | 
8 | Cn1cc2c3cc(C(=O)NCc4ccncc4)ccc3n(-c3ccc(C(F)(F)F)cc3)c2n1 [Example 28, 2-methyl-N-[(pyridin-4-yl)methyl]-8-[4-(trifluoromethyl)phenyl]-2H, 8H-pyrazolo[3,4-b]indole-5-carboxamide] | 181 to 185 °C |  |  |  |  | 
9 | [2H]C1([2H])C(n2c3ccc(C(=O)O)cc3c3cn(C)nc32)C([2H])([2H])C([2H])([2H])C([2H])([2H])C1([2H])[2H] [Example C193, 8-[(2,2,3,3,4,4,5,5,6,6-^2H10)cyclohexyl]-2-methyl-2H,8H-pyrazolo[3,4-b]indole-5-carboxylic acid] |  | > 30000 nM | > 30000 nM | 100 to 10000 nM |  | 
10 | [2H]C1([2H])C(n2c3ccc(C(=O)NC)cc3c3cn(C)nc32)C([2H])([2H])C([2H])([2H])C([2H])([2H])C1([2H])[2H] [Example C194, 8-[(2,2,3,3,4,4,5,5,6,6-^2H10)cyclohexyl]-N,2-dimethyl-2H,8H-pyrazolo[3,4-b]indole-5-carboxamide] |  |  | > 30000 nM | 100 to 10000 nM | 1000 to 10000 nM | 
11 | [2H]C1([2H])C(n2c3ccc(C(=O)N[C@@H](CO)c4ccccn4)cc3c3cn(C)nc32)C([2H])([2H])C([2H])([2H])C([2H])([2H])C1([2H])[2H] [Example C196, 8-[(2,2,3,3,4,4,5,5,6,6-^2H10)cyclohexyl]-N-[(1R)-2-hydroxy-1-(pyridin-2-yl)ethyl]-2-methyl-2H,8H-pyrazolo[3,4-b]indole-5-carboxamide] |  |  | > 30000 nM | 100 to 10000 nM | 100 to 1000 nM | 
12 | Cn1cnc2c1c1cc(C3CC(Cl)=NO3)ccc1n2-c1ccc(C(F)(F)F)cc1 (centres unmarked) [Example C198, 3-chloro-5-{1-methyl-4-[4-(trifluoromethyl)phenyl]-1H,4H-imidazo[4,5-b]indol-7-yl}-4,5-dihydro-1,2-oxazole] |  |  | > 3000 nM | 10 to 100 nM | 1 to 100 nM | 
13 | Cn1cc2c3cc(C(=O)NCc4ccncc4)ccc3n(C3CC4(C3)CC(F)(F)C4)c2n1 [Example C208, 8-{6,6-difluorospiro[3.3]heptan-2-yl}-2-methyl-N-[(pyridin-4-yl)methyl]-2H,8H-pyrazolo [3,4-b]indole-5-carboxamide] |  |  | > 30000 nM | 10 to 100 nM | 100 to 1000 nM | 
14 | Cn1cc2c3cc(C(=O)NCc4ccncc4)ccc3n(-c3ccc(C(F)F)cc3)c2n1 [Example C209, 8-[4-(difluoromethyl)phenyl]-2-methyl-N-[(pyridin-4-yl)methyl]-2H,8H-pyrazolo[3,4-b]indole-5-carboxamide] |  |  | > 30000 nM | 10 to 100 nM | 100 to 1000 nM | 
15 | Cn1cc2c3cc(C(=O)N=S(=O)(CCO)Cc4ccncc4)ccc3n(-c3ccc(C(F)(F)F)cc3)c2n1 (centres unmarked) [Example C216, N-[(2-hydroxyethyl)(oxo)[(pyridin-4-yl)methyl]-λ^6-sulfanylidene]-2-methyl-8-[4-(trifluoromethyl)phenyl]-2H,8H-pyrazolo[3,4-b]indole-5-carboxamide] |  |  | > 3000 nM |  | 1 to 100 nM | > 9500 nM
16 | Cc1cc(C(CO)NC(=O)c2ccc3c(c2)c2cn(C)nc2n3-c2ccc(C(F)(F)F)cc2)ccn1 (centres unmarked) [Example C219, N-[2-hydroxy-1-(2-methylpyridin-4-yl)ethyl]-2-methyl-8-[4-(trifluoromethyl)phenyl]-2H,8H-pyrazolo[3,4-b]indole-5-carboxamide] |  |  | > 3000 nM | 10 to 100 nM | 100 to 1000 nM | 
17 | Cc1cc(C(CO)NC(=O)c2ccc3c(c2)c2nn(C)nc2n3-c2ccc(C(F)(F)F)cc2)ccn1 (centres unmarked) [Example C220, N-[2-hydroxy-1-(2-methylpyridin-4-yl)ethyl]-2-methyl-4-[4-(trifluoromethyl)phenyl]-2H,4H-[1,2,3]triazolo[4,5-b]indole-7-carboxamide] |  |  | > 3000 nM | 10 to 100 nM | 1 to 100 nM | 
18 | Cn1cc2c3cc(C(=O)NC(CCO)c4ccccn4)ccc3n(-c3ccc(C(F)(F)F)cc3)c2n1 (centres unmarked) [Example C225, N-[3-hydroxy-1-(pyridin-2-yl)propyl]-2-methyl-8-[4-(trifluoromethyl)phenyl]-2H,8H-pyrazolo[3,4-b]indole-5-carboxamide] |  |  | > 30000 nM | 10 to 100 nM | 1 to 100 nM | 
19 | Cn1nc2c3cc(C(=O)NC(CCO)c4ccccn4)ccc3n(-c3ccc(C(F)(F)F)cc3)c2n1 (centres unmarked) [Example C226, N-[3-hydroxy-1-(pyridin-2-yl)propyl]-2-methyl-4-[4-(trifluoromethyl)phenyl]-2H,4H-[1,2,3]triazolo[4,5-b]indole-7-carboxamide] |  |  | > 3000 nM | 10 to 100 nM | 1 to 100 nM | 
20 | CNC(=O)c1cnc2c(c1)c1cn(C)nc1n2-c1ccc(C(F)(F)F)cc1 [Example C227, N,4-dimethyl-7-[4-(trifluoromethyl)-phenyl]-4,5,7,9-tetraazatricyclo [6.4.0.0^2,6]dodeca-1(8),2,5,9,11-pentaene-11-carboxamide] |  |  | > 30000 nM | 10 to 100 nM | 1 to 100 nM | 
21 | C[C@H](CO)NC(=O)c1ccc2c(c1)c1cn(C)nc1n2-c1ccc(C(F)F)cc1 [Example C247, 8-[4-(difluoromethyl)phenyl]-N-[(2R)-1-hydroxypropan-2-yl]-2-methyl-2H,8H-pyrazolo[3,4-b]indole-5-carboxamide] |  |  | > 30000 nM | 10 to 100 nM | 1 to 100 nM | 
22 | Cn1cc2c3cc(C(=O)N[C@@H](CO)c4ccccn4)ccc3n(-c3ccc(C(F)F)cc3)c2n1 [Example C248, 8-[4-(difluoromethyl)phenyl]-N-[(1R)-2-hydroxy-1-(pyridin-2-yl)ethyl]-2-methyl-2H,8H-pyrazolo[3,4-b]indole-5-carboxamide] |  |  | > 30000 nM | 10 to 100 nM | 1 to 100 nM | 
23 | Cn1nc2c3cc(C(=O)N[C@H](CO)c4ccccn4)ccc3n(-c3ccc(C(F)(F)F)cc3)c2n1 [Example C249, N-[(1S)-2-hydroxy-1-(pyridin-2-yl)ethyl]-2-methyl-4-[4-(trifluoromethyl)phenyl]-2H,4H-[1,2,3]triazolo[4,5-b]indole-7-carboxamide] |  |  | > 30000 nM | 10 to 100 nM | 100 to 1000 nM | 
24 | C[C@@H](NC(=O)c1ccc2c(c1)c1cn(C)nc1n2-c1ccc(C(F)(F)F)cc1)c1ccc(N)nc1 [Example C257, N-[(1R)-1-(6-aminopyridin-3-yl)ethyl]-2-methyl-8-[4-(trifluoromethyl)phenyl]-2H,8H-pyrazolo[3,4-b]indole-5-carboxamide] |  |  | > 30000 nM | 100 to 10000 nM | 1 to 100 nM | 
25 | Cn1ccc(C(CO)NC(=O)c2ccc3c(c2)c2cn(C)nc2n3-c2ccc(C(F)(F)F)cc2)n1 (centres unmarked) [Example C260, N-[2-hydroxy-1-(1-methyl-1H-pyrazol-3-yl)ethyl]-2-methyl-8-[4-(trifluoromethyl)phenyl]-2H,8H-pyrazolo[3,4-b]indole-5-carboxamide] |  |  | > 30000 nM | 10 to 100 nM | 1 to 100 nM | 
26 | Cn1nc2c3cc(C(=O)N=S4(=O)CCNCC4)ccc3n(-c3ccc(C(F)(F)F)cc3)c2n1 [Example C261, 2-methyl-N-(1-oxo-1lambda6-thiomorpholin-1-ylidene)-4-[4-(trifluoromethyl)phenyl]-2H,4H-[1,2,3]triazolo[4,5-b]indole-7-carboxamide] |  |  | > 30000 nM | 10 to 100 nM | 1 to 100 nM | 
27 | Cn1cc2c3cc(C(=O)NC(CO)c4cscn4)ccc3n(-c3ccc(C(F)(F)F)cc3)c2n1 (centres unmarked) [Example C277, N-[2-hydroxy-1-(1,3-thiazol-4-yl)ethyl]-2-methyl-8-[4-(trifluoromethyl)phenyl]-2H,8H-pyrazolo[3,4-b]indole-5-carboxamide] |  |  | > 30000 nM | 10 to 100 nM | 1 to 100 nM | 
